# Results reported in patent US20220380937A1, “IDENTIFICATION OF SPLICING-DERIVED ANTIGENS FOR TREATING CANCER” (THE REGENTS OF THE UNIVERSITY OF CALIFORNIA, priority 2019, published 2022).
# Tested on: CD3+CD8+ T cells
# Experiment: MHC class I dextramer-based T-cell recognition assay (flow cytometry of PBMCs/TILs with pMHC complexes)
# Set-up: species or system human
# Details: for tested healthy donors whose T cells recognized the epitope: three HLA-matched healthy donors tested, PBMCs
# Description: Assays to determine immunogenicity and/or TCR binding can be performed. One such as is the dextramer flow cytometery assay. Generally, custom-made HLA-matched MHC Class I dextramer:peptide (pMHC) complexes are developed or purchased (Immudex, Copenhagen, Denmark). T cells from peripheral blood mononuclear cells (PBMCs) or tumor-infiltrating lymphocytes (TILs) are incubated the pMHC complexes and stained, which are then run through a flow cytometer to determine if the peptide is capable of binding a TCR of a T cell.
# Finally, the inventors sought to validate the immunogenicity and T-cell recognition of IRIS-identified candidate TCR targets using an MHC class I dextramer-based assay (12,24). The inventors focused on predicted AS-derived tumor epitopes with strong putative HLA-binding affinity to common HLA types found in at least five of the 22 patients. The inventors selected seven AS-derived tumor-associated epitopes (five HLA-A02:01 and two HLA-A03:01) for dextramer-based T-cell recognition testing (Table 4). […] The inventors obtained customized HLA-matched, fluorescently labeled MEW class I dextramer:peptide (pMHC) complexes for each candidate epitope. The inventors conducted flow cytometry to detect CD8^+ T-cell binding with the pMHC complexes using available peripheral blood mononuclear cells (PBMCs) and/or ex vivo-expanded tumor-infiltrating lymphocytes (TILs). Based on the binding of each AS-derived tumor epitope to a patient's CD3^+CD8^+ T cells, the inventors classified epitope reactivity as ‘positive’ (binding>0.1% of cells), ‘marginal’ (binding 0.01-0.1% of cells), or ‘negative’ (binding<0.01% of cells). […] The inventors analyzed samples from two HLA-A02:01 and four HLA-A03:01 patients, as well as samples from three HLA-A02:01 and three HLA-A03:01 healthy donors (Table 5, Supplementary Data).
# Dextramer flow-cytometric analysis of PBMCs and TILs. For each AS-derived peptide selected for validation, custom-made HLA-matched MHC Class I dextramer:peptide (pMHC) complexes were purchased from Immudex (Copenhagen, Denmark). Immudex also provided pMHC complexes for common cytomegalovirus (CMV) epitopes (cat. nos. WB2132 and WC2197) and for a nonhuman epitope (NI3233) as a negative control. Each pMHC complex was purchased with two separate tags for APC or PE fluorescence labeling, to increase specificity to targeted T cells with dual labeling.
# To facilitate proper gating of CD8^+ T cells from PBMC and TIL populations, the following panel of antibodies (from BioLegend) was set up: CD3 BV605 (cat. no. 300460), CD8 FITC (cat. no. 344704), CD4 BV421 (cat. no. 317434), CD19 BV421 (cat. no. 302234), CD56 BV421 (cat. no. 362552), and CD14 BV421 (cat. no. 301828). For single-color compensation controls, OneComp eBeads were used (Thermo Fisher Scientific, cat. no. 01-1111-41).
# For each set of pMHC complexes, at least 3×10^6 cells were stained according to manufacturer's guidelines. Briefly, cells were thawed in a 37° C. water bath and washed with RPMI and D-PBS (Fisher Scientific, cat. no. MT21031CV) before staining for cell viability with the Zombie Violet Viability Kit (BioLegend, cat. no. 423113). Next, the appropriate amount of each pMHC complex in a staining buffer of D-PBS with 5% fetal bovine serum (Fisher Scientific, cat. no. MT35016CV) was added to each sample. After 10 min, the aforementioned antibody cocktail was added. After a 30-min incubation period, cells were washed twice in the same staining buffer. All samples were tested in a BD LSRII flow cytometer, and data were analyzed with FlowJo (Treestar). For gating, the lymphocyte population was first selected using forward and side scatter, and then the BV421-negative population was gated out (i.e. excluding dead cells and the CD14, CD19, CD56, and CD4 populations) before selecting the CD3^+CD8^+population. […]
# [1] = patient LB2867, ex vivo-expanded TILs
Sequence,"reactive cells, % of CD3+CD8+ T cells (the one recognizing healthy donor of three tested) [%]",tested healthy donors whose T cells recognized the epitope,"recognition by patient T cells (GBM patients, PBMCs and/or ex vivo-expanded TILs)","tested patients whose T cells recognized the epitope (four HLA-A03:01 GBM patients tested, PBMCs and/or TILs, at least marginal reactivity = recognized)","epitope-reactive T cells, % of T cells in PBMCs (patient LB2867, PBMCs) [%]",epitope reactivity (recognition) in expanded TIL population [1],"epitope-reactive T cells, % of T cells in TILs [1] [%]"
YAIVWVNGV (listed as Homo sapiens),0.013,only one healthy donor,–,–,–,–,–
KIGRLVTRK (listed as Homo sapiens),–,one of the three,recognized,all four tested patients,0.03,positive (‘positive’ (binding>0.1% of cells)),1.69
